Measured values reported in patent publication US12622915B2, “Methods of treating PDE IV-mediated diseases or conditions” (Vanda Pharmaceuticals Inc., priority 2020, dated 2026).

Columns and labels:
Phosphodiesterase PDE4B1 = biological target: T1, Phosphodiesterase PDE4B1 (Homo sapiens, UniProt Q07343); assay: Phosphodiesterase PDE4B1 enzyme assay; format: biochemical
T1 construct: host or cells: insect Sf9 cells
Description: (§1) Reference standards are run as an integral part of each assay to ensure the validity of the results obtained. Reference Compounds: • Phosphodiesterase PDE10A2 Papaverine • Phosphodiesterase PDE11A4 Dipyridamole • Phosphodiesterase PDE1A MMPX • Phosphodiesterase PDE2A EHNA • Phosphodiesterase PDE3A Cilostamide • Phosphodiesterase PDE4A1A Rolipram • Phosphodiesterase PDE4B1 Rolipram • Phosphodiesterase PDE5A Zaprinast • Phosphodiesterase PDE6 Zaprinast • Phosphodiesterase PDE7A IBMX • Phosphodiesterase PDE7B IBMX • Phosphodiesterase PDE8A1 Dipyridamole • Phosphodiesterase PDE9A2 Zaprinast
PDE4 assays are performed using methods adapted from the literature. See Richter W, et al. (2001) Identification of inhibitor binding sites of the cAMP-specific phosphodiesterase 4. Cell Signal. 13(4): 287-297; Wang H, et al. (2005) Multiple elements jointly determine inhibitor selectivity of cyclic nucleotide phosphodiesterases 4 and 7. J Biol Chem. 280(35): 30949-30955.
Phosphodiesterase PDE4A1A; Phosphodiesterase PDE4B1; Phosphodiesterase PDE10A2; Phosphodiesterase PDE11A4; Phosphodiesterase PDE2A; Phosphodiesterase PDE3A; Phosphodiesterase PDE7A; Phosphodiesterase PDE7B; and Phosphodiesterase PDE8A1: • Source: Human recombinant insect Sf9 cells • Substrate: 0.10 μM FAM-cAMP • Vehicle: 1.00% DMSO • Significance Crit.: ≥50% of max stimulation or inhibition • Incubation Buffer: 10 mM Tris-HCl, pH 7.2, 10 mM MgCl2, 0.05% NaN3, 0.1% phosphate-free BSA • Quantitation Method: Quantitation of Fluorescein-AMP-IMAP • Pre-Incub. Time/Temp: 15 minutes @25° C. • Incubation Time/Temp: 30 minutes @25° C.
(§2) IC50 values are determined by a non-linear, least squares regression analysis using MathIQ™ (ID Business Solutions Ltd., UK). Where inhibition constants (Ki) are presented, the Ki values are calculated using the equation of Cheng and Prusoff (Cheng, Y., Prusoff, W. H., Biochem. Pharmacol. 22:3099-3108, 1973) using the observed IC50 of the tested compound, the concentration of radioligand employed in the assay, and the historical values for the KD of the ligand. Where presented, the Hill coefficient (nH), defining the slope of the competitive binding curve, is calculated using MathIQ™. […] Where IC50, Ki, and/or nH data are presented without Standard Error of the Mean (SEM), data are insufficient to be quantitative, and the values presented (Ki, IC50, nH) are interpreted with caution.
Reference standards are run as an integral part of each assay to ensure the validity of the results obtained. Rolipram is used for the PDE4 assays.
(§3) Phosphodiesterase PDE4B1: • Source: Human recombinant insect Sf9 cells • Substrate: 0.10 μM FAM-cAMP • Vehicle: 1.00% DMSO • Significance Crit.: ≥50% of max stimulation or inhibition • Incubation Buffer: 10 mM Tris-HCl, pH 7.2, 10 mM MgCl2, 0.05% NaN3, 0.1% phosphate-free BSA • Quantitation Method: Quantitation of Fluorescein-AMP-IMAP • Pre-Incub. Time/Temp: 15 minutes @25° C. • Incubation Time/Temp: 30 minutes @25° C.
as §2, with “W.H.,” for “W. H.,”

Phosphodiesterase PDE9A2 = biological target: T2, Phosphodiesterase PDE9A2 (Homo sapiens, UniProt O76083); assay: Phosphodiesterase PDE9A2 enzyme assay; format: biochemical; conditions: N=2, Example 3
T2 construct: host or cells: insect Sf9 cells
T2 sequence (O76083 1-533 isoform O76083-2): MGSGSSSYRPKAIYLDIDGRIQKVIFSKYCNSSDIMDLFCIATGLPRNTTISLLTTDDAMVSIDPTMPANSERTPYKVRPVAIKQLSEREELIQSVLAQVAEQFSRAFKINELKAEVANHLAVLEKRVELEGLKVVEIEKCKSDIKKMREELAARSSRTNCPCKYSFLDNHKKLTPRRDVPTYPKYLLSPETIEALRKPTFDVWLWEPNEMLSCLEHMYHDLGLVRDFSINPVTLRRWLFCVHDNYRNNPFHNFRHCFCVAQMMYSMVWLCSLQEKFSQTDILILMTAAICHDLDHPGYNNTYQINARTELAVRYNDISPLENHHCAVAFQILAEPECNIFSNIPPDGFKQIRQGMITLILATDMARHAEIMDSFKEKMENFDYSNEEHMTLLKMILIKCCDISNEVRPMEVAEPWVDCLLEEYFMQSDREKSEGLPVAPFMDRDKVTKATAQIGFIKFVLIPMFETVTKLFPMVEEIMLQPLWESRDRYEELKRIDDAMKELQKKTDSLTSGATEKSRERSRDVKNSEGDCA
Description: as §1
as §3, with “PDE1A; Phosphodiesterase PDE5A; and Phosphodiesterase PDE9A2:” for “PDE4B1:”, “Fluorescein-GMP-IMAP” for “Fluorescein-AMP-IMAP”
IC50 values are determined by a non-linear, least squares regression analysis using MathIQ™ (ID Business Solutions Ltd., UK). […] Where presented, the Hill coefficient (nH), defining the slope of the competitive binding curve, is calculated using MathIQ™. […]

[1] = system: PMA-induced ear thickening and ear weight gain; assay: PMA-induced ear inflammation model (Example 1); format: in vivo, BALB/c; conditions: 6 hours post PMA, topical 0.5% w/v on both ears 30 min before and 15 min after PMA
Description: Animals in group 2, 3, and 4 receive dexamethasone, Crisaborole and the compound of Formula (I), respectively (as a solution in acetone and ethanol by 1:1 ratio), 30 min before PMA challenge, on both ears.
• −24 hr—Randomization (body weight based) • −30 min—Treatment Topical • 0 min—Disease Induction PMA application • 15 min—Treatment Topical • 6 hr—Skin Thickness, Skin Collection (Cohort 1) • 24 hr—Skin Thickness, Skin Collection (Cohort 2)
5 μg/20 μl/right ear and 5 μg/20 μl/left ear (2.5 μg/10 μl in anterior and posterior surface of both ears)
Phorbol 12-myristate 13-acetate (PMA) is formulated in acetone at a concentration of 250 μg/ml. This working solution is applied topically to the anterior and posterior surface of both the ear (10 μl each side).
Ear thickness (both right and left ear): at −1 hr (before PMA challenge), 6 hr and 24 hrs post PMA challenge.
At 6 hr and 24 hrs, respective cohort of animals are euthanized, and ear tissues are collected. […] Left ears are collected and preserved in 10% NBF for Histopathology.

[2] = Plasma and ear skin concentration in IMQ model, day 6; format: in vivo, BALB/c mice; conditions: day 6, post 2h treatment, topical 0.5%
Description: On day 6, blood is collected by retro-orbital bleeding under isoflurane anesthesia prior to euthanasia. Blood is collected in K2-EDTA tubes and plasma is separated and stored at −80° C. for further analysis (for test item concentration).
On day 6, post 2h treatment, plasma and ear skin concentration of animals treated with the compound of Formula (I) are estimated. […] The concentration in the ear skin is close to 976-fold more than the plasma levels.

T1 sequence (Q07343 whole entry): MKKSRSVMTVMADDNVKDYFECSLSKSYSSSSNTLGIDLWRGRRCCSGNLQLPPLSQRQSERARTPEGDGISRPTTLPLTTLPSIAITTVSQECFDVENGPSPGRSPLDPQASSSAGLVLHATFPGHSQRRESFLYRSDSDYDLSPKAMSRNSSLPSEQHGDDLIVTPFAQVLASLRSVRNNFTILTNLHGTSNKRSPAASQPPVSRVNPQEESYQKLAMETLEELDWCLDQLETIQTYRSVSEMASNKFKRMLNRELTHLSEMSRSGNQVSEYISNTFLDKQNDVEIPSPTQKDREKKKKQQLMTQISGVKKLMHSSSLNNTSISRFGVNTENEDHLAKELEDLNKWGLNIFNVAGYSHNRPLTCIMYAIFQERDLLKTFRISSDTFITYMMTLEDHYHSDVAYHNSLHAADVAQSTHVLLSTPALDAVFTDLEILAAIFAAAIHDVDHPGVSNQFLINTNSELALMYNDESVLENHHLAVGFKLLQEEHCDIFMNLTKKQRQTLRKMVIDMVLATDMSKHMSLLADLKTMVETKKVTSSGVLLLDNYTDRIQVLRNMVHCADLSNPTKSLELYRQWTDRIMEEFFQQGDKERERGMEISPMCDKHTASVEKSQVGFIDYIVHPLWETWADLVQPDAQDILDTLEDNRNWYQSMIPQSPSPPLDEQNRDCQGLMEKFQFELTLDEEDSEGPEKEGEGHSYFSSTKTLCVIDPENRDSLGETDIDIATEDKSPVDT

inhibition at 0.01 µM (Phosphodiesterase PDE4B1; 10 nM, N=2, Example 4): 17%
inhibition at 0.03 µM (Phosphodiesterase PDE4B1; 0.03 μM, N=2, Example 4): 34%
inhibition at 0.1 µM (Phosphodiesterase PDE4B1; 0.1 μM, N=2, Example 4): 49%
inhibition at 0.3 µM (Phosphodiesterase PDE4B1; 0.3 μM, N=2, Example 4): 70%
inhibition at 1 µM (Phosphodiesterase PDE4B1; 1 μM, N=2, Example 4): 83%
inhibition at 3 µM (Phosphodiesterase PDE4B1; 3 μM, N=2, Example 4): 91%
inhibition at 10 µM (Phosphodiesterase PDE4B1; N=2, Example 3): 96%
inhibition at 10 µM (Phosphodiesterase PDE4B1; N=2, Example 4): 94%
IC50 (Phosphodiesterase PDE4B1; Example 4): 94 nM
inhibition at 10 µM (Phosphodiesterase PDE9A2): -2%
Kp ([2]; BALB/c, mouse, ear skin / plasma, read-out: Concentration in the ear skin relative to plasma levels): ~976
Concentrations in plasma and ear skin [2]: Significant concentrations
Structure (SMILES): CNc1nc(Nc2ccccc2)nc(OCC(F)(F)C(F)F)n1 [compound of Formula (I), N^2-methyl-N^4-phenyl-6-(2,2,3,3-tetrafluoropropoxy)-1,3,5-triazine-2,4-diamine]
PMA-induced ear thickening [1]: prevents or reduces
PMA-induced ear weight gain [1]: prevents or reduces
